Assay results: US11957759B1, “Rapidly accelerated fibrosarcoma (RAF) degrading compounds and associated methods of use” (Arvinas Operations, Inc., priority 2022, dated 2024)

How the values were obtained:
[1] = biological target: T1, B-RAF V600E (Homo sapiens, UniProt P15056, V600E); assay: Target protein degradation, assay A: T-Rex 293 cells, HA-B-RAF_V600E, 96 well format; type: cell-based; details: T-Rex 293 HA-B-RAF_V600E cells, 24 hours, Examples 1-82
T1 construct: expressed in transfected cells; host or cells: T-Rex 293 cells (Invitrogen #R71007)
Procedure: A. T-Rex 293 Cells (96 well format)
T-Rex 293 cells were purchased from Invitrogen (#R71007), and stably transfected with a pcDNA4/TO_HA-B-RAF_V600E construct, using 400 ug Zeocin for selection. V600e cells are plated in ulbecco's Modified Eagle Medium (DMEM; Gibco #11965118) containing 10% fetal bovine serum (FBS; Gibco #16000044) and 1 ng/mL doxycycline (Selleckchem #4163) at a density of 5,000 cells/well in 50 μl on poly-D-lysine (PDL) coated, black clear bottom 96-well plates (Corning #354640) and incubated for 24 hours at 37° C. with 5% CO2. The following day 50 ul of tested compound was added at 2× concentration in DMEM with a final concentration ranging from 1 μM to 0.1 nM in 0.1% dimethylsulfoxide (DMSO), and incubated for 24 hours at 37° C. with 5% CO2. At the end of the experimental treatment, the media was flicked off and cells washed once with phosphate-buffered saline (PBS)++(PBS with CaCl and MgCl) and gently replacing with 200 μl PBS++ per well. The PBS++ was removed and 50 uL 4% paraformaldehyde (PFA; EMS #15710) in PBS++ was added, and incubate at room temperature for 15 minutes. Cells were washed once with PBS++ and 50 uL 0.1% Triton X-100 (Fisher #BP151-500) in PBS++ was added. Plate was incubate for 5 minutes at room temperature. Cells were was once with PBS++. Cells were blocked with 100 uL Licor blocking buffer (Licor #927-50000) for 1 hour at room temperature. Next, 50 uL of HA antibody (CST #3724) at 1:1000 in Licor blocking buffer was added, and the plate icubate overnight at 4° C. The plates were parafilmed to prevent evaporation. Plate was washed three times with 200 uL PBS++. Fifty microliters of HCS secondary antibody solution [1:1000 Hoechst (Invitrogen #H3570), 1:1000 phalloidin (Invitrogen #A22287) and 1:5000 Alexa fluor (Invitrogen #A11008)] was added and incubated for 1 hour. Plate was wash three times with 200 uL PBS++, and imaged on a high content reader (ImageXpress Micro XLS, Molecular Devices).
(§1) The concentration of an exemplary compound that leads to half maximal degradation (DC50) as well as the maximum degradation observed (Dmax, conventionally expressed as a percentage of control) is shown below in Table 2.

[2] = biological target: T2, B-RAF G466V (Homo sapiens, UniProt P15056, G466V); assay: Target protein degradation, assay B: T-Rex 293 cells, HA-B-RAF_G466V, 96 well format; type: cell-based; details: T-Rex 293 HA-B-RAF_G466V cells, 24 hours, Examples 1-82
T2 construct: expressed in transfected cells; host or cells: T-Rex 293 cells (Invitrogen #R71007)
Procedure: B. T-Rex 293 Cells (96 Well Format)
T-Rex 293 cells were purchased from Invitrogen (#R71007), and stably transfected with a pcDNA4/TO_HA-B-RAF_G466V construct, using 400 ug Zeocin for selection. G466V cells are plated in ulbecco's Modified Eagle Medium (DMEM; Gibco #11965118) containing 10% fetal bovine serum (FBS; Gibco #16000044) and 0.75 ng/mL doxycycline (Selleckchem #4163) at a density of 5,000 cells/well in 50 μl on poly-D-lysine (PDL) coated, black clear bottom 96-well plates (Corning #354640) and incubated for 24 hours at 37° C. with 5% CO2. The following day 50 ul of tested compound was added at 2× concentration in DMEM with a final concentration ranging from 30 nM to 3 pM in 0.1% dimethylsulfoxide (DMSO), and incubated for 24 hours at 37° C. with 5% CO2. At the end of the experimental treatment, the media was flicked off and cells washed once with phosphate-buffered saline (PBS)++(PBS with CaCl and MgCl) and gently replacing with 200 μl PBS++ per well. The PBS++ was removed and 50 uL 4% paraformaldehyde (PFA; EMS #15710) in PBS++ was added, and incubate at room temperature for 15 minutes. Cells were washed once with PBS++ and 50 uL 0.1% Triton X-100 (Fisher #BP151-500) in PBS++ was added. Plate was incubate for 5 minutes at room temperature. Cells were was once with PBS++. Cells were blocked with 100 uL Licor blocking buffer (Licor #927-50000) for 1 hour at room temperature. Next, 50 uL of HA antibody (CST #3724) at 1:1000 in Licor blocking buffer was added, and the plate icubate overnight at 4° C. The plates were parafilmed to prevent evaporation. Plate was washed three times with 200 uL PBS++. Fifty microliters of HCS secondary antibody solution [1:1000 Hoechst (Invitrogen #H3570), 1:1000 phalloidin (Invitrogen #A22287) and 1:5000 Alexa fluor (Invitrogen #A11008)] was added and incubated for 1 hour. Plate was wash three times with 200 uL PBS++, and imaged on a high content reader (ImageXpress Micro XLS, Molecular Devices).
as §1

T1 sequence (P15056 whole entry V600E): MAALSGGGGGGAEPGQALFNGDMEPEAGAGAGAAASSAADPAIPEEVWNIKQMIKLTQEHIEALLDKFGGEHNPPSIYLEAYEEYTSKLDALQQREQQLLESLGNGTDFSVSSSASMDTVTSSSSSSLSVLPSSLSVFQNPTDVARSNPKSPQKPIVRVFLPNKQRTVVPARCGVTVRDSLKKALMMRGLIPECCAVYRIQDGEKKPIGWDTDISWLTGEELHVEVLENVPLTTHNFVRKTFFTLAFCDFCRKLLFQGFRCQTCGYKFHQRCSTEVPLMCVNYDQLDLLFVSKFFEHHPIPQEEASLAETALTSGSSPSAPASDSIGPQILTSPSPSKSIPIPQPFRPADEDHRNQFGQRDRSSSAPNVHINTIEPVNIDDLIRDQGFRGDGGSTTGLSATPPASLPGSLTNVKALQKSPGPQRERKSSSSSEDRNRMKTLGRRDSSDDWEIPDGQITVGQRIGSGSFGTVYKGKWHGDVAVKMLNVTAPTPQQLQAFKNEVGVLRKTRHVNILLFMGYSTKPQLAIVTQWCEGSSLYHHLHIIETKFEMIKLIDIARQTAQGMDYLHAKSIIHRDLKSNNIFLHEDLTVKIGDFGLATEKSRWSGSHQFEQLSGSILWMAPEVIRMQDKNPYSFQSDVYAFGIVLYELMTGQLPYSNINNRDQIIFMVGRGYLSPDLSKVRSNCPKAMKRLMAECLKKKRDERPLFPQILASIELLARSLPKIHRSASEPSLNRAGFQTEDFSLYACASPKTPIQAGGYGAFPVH
T2 sequence (P15056 whole entry G466V): as the sequence (P15056 whole entry V600E) above, with G466V, E600V counted along it

| Structure (SMILES) | DC50 [1] [µM] | DC50 [2] [µM] | Dmax [2] [%] | Dmax [1] [%] |
| --- | --- | --- | --- | --- |
| N#Cc1c(NS(=O)(=O)N2CC[C@@H](F)C2)ccc(F)c1Oc1ccc2ncn(C3CCN(CC4CCN(c5ccc6c(c5)CN(C5CCC(=O)NC5=O)C6=O)CC4)CC3)c(=O)c2c1 (stereo partly drawn) [Example 6, (3R)-N-[2-cyano-3-({3-[1-({1-[2-(2,6-dioxopiperidin-3-yl)-1-oxo-2,3-dihydro-1H-isoindol-5-yl]piperidin-4-yl}methyl)piperidin-4-yl]-4-oxo-3,4-dihydroquinazolin-6-yl}oxy)-4-fluorophenyl]-3-fluoropyrrolidine-1-sulfonamide] | > 0.5 | ≤ 0.001 | ≤ 35 |  |
| N#Cc1c(NS(=O)(=O)N2CC[C@@H](F)C2)ccc(F)c1Oc1ccc2ncn(C3CCN(CCN4CCN(c5ccc6c(c5)CN(C5CCC(=O)NC5=O)C6=O)CC4)CC3)c(=O)c2c1 (stereo partly drawn) [Example 7, (3R)-N-[2-cyano-3-({3-[1-(2-{4-[2-(2,6-dioxopiperidin-3-yl)-1-oxo-2,3-dihydro-1H-isoindol-5-yl]piperazin-1-yl}ethyl)piperidin-4-yl]-4-oxo-3,4-dihydroquinazolin-6-yl}oxy)-4-fluorophenyl]-3-fluoropyrrolidine-1-sulfonamide] | > 0.5 | 0.01 to 0.03 | 35 to 70 | 35 to 70 |
| N#Cc1c(NS(=O)(=O)N2CC[C@@H](F)C2)ccc(F)c1Oc1ccc2ncn(-c3ccc(N4CCN(CC5CN(c6ccc7c(c6)CN(C6CCC(=O)NC6=O)C7=O)C5)CC4)nc3)c(=O)c2c1 (stereo partly drawn) [Example 8, (3R)-N-{2-cyano-3-[(3-{6-[4-({1-[2-(2,6-dioxopiperidin-3-yl)-1-oxo-2,3-dihydro-1H-isoindol-5-yl]azetidin-3-yl}methyl)piperazin-1-yl]pyridin-3-yl}-4-oxo-3,4-dihydroquinazolin-6-yl)oxy]-4-fluorophenyl}-3-fluoropyrrolidine-1-sulfonamide] | 0.05 to 0.5 | 0.001 to 0.01 | ≤ 35 | 35 to 70 |
| N#Cc1c(NS(=O)(=O)N2CC[C@@H](F)C2)ccc(F)c1Oc1ccc2ncn(-c3cnc(N4CCN(CC5CN(c6ccc7c(c6)CN(C6CCC(=O)NC6=O)C7=O)C5)CC4)nc3)c(=O)c2c1 (stereo partly drawn) [Example 9, (3R)-N-{2-cyano-3-[(3-{2-[4-({1-[2-(2,6-dioxopiperidin-3-yl)-1-oxo-2,3-dihydro-1H-isoindol-5-yl]azetidin-3-yl}methyl)piperazin-1-yl]pyrimidin-5-yl}-4-oxo-3,4-dihydroquinazolin-6-yl)oxy]-4-fluorophenyl}-3-fluoropyrrolidine-1-sulfonamide] | 0.05 to 0.5 | > 0.03 |  | 35 to 70 |
| N#Cc1c(NS(=O)(=O)N2CC[C@@H](F)C2)ccc(F)c1Oc1ccc2ncn(-c3ccc(N4CCN(CCN5CCN(c6ccc7c(c6)CN(C6CCC(=O)NC6=O)C7=O)CC5)CC4)cc3)c(=O)c2c1 (stereo partly drawn) [Example 10, (3R)-N-{2-cyano-3-[(3-(4-[4-(2-{4-[2-(2,6-dioxopiperidin-3-yl)-1-oxo-2,3-dihydro-1H-isoindol-5-yl]piperazin-1-yl}ethyl)piperazin-1-yl]phenyl}-4-oxo-3,4-dihydroquinazolin-6-yl)oxy]-4-fluorophenyl}-3-fluoropyrrolidine-1-sulfonamide] | > 0.5 | > 0.03 |  |  |
| N#Cc1c(NS(=O)(=O)N2CC[C@@H](F)C2)ccc(F)c1Oc1ccc2ncn(-c3ccc(N4CCN(CC5CCN(c6ccc(NC7CCC(=O)NC7=O)cc6F)CC5)CC4)cc3)c(=O)c2c1 (stereo partly drawn) [Example 11, (3R)-N-(2-cyano-3-{[3-(4-{4-[(1-{4-[(2,6-dioxopiperidin-3-yl)amino]-2-fluorophenyl}piperidin-4-yl)methyl]piperazin-1-yl}phenyl)-4-oxo-3,4-dihydroquinazolin-6-yl]oxy}-4-fluorophenyl)-3-fluoropyrrolidine-1-sulfonamide] | 0.005 to 0.05 | > 0.03 |  | 35 to 70 |
| N#Cc1c(NS(=O)(=O)N2CC[C@@H](F)C2)ccc(F)c1Oc1ccc2ncn(-c3ccc(N4CCN(CC5CCN(c6ccc(NC7CCC(=O)NC7=O)cc6F)CC5)CC4)nc3)c(=O)c2c1 (stereo partly drawn) [Example 12, (3R)-N-(2-cyano-3-{[3-(6-{4-[(1-{4-[(2,6-dioxopiperidin-3-yl)amino]-2-fluorophenyl}piperidin-4-yl)methyl]piperazin-1-yl}pyridin-3-yl)-4-oxo-3,4-dihydroquinazolin-6-yl]oxy}-4-fluorophenyl)-3-fluoropyrrolidine-1-sulfonamide] | 0.005 to 0.05 | > 0.03 |  | 35 to 70 |
| N#Cc1c(NS(=O)(=O)N2CC[C@@H](F)C2)ccc(F)c1Oc1ccc2ncn(-c3ccc(N4CCN(CC5CCN(c6ccc(C7CCC(=O)NC7=O)cc6F)CC5)CC4)cc3)c(=O)c2c1 (stereo partly drawn) [Example 13, (3R)-N-{2-cyano-3-[(3-{4-[4-({1-[4-(2,6-dioxopiperidin-3-yl)-2-fluorophenyl]piperidin-4-yl}methyl)piperazin-1-yl]phenyl}-4-oxo-3,4-dihydroquinazolin-6-yl)oxy]-4-fluorophenyl}-3-fluoropyrrolidine-1-sulfonamide] | 0.005 to 0.05 | > 0.03 |  | 35 to 70 |
| N#Cc1c(NS(=O)(=O)N2CC[C@@H](F)C2)ccc(F)c1Oc1ccc2ncn(-c3ccc(N4CCN(CC5CCN(c6ccc(C7CCC(=O)NC7=O)cc6F)CC5)CC4)nc3)c(=O)c2c1 (stereo partly drawn) [Example 14, (3R)-N-{2-cyano-3-[(3-{6-[4-({1[4-(2,6-dioxopiperidin-3-yl)-2-fluorophenyl]piperidin-4-yl}methyl)piperazin-1-yl]pyridin-3-yl}-4-oxo-3,4-dihydroquinazolin-6-yl)oxy]-4-fluorophenyl}-3-fluoropyrrolidine-1-sulfonamide] | 0.05 to 0.5 | > 0.03 |  | 35 to 70 |
| N#Cc1c(NS(=O)(=O)N2CC[C@@H](F)C2)ccc(F)c1Oc1ccc2ncn(-c3ccc(N4CCN(CC5CCN(c6ccc(F)c(C(=O)NC7CCC(=O)NC7=O)c6)CC5)CC4)cc3)c(=O)c2c1 (stereo partly drawn) [Example 15, 5-(4-{[4-(4-{6-[2-cyano-6-fluoro-3-({[(3R)-3-fluoropyrrolidin-1-yl]sulfonyl}amino)phenoxy]-4-oxo-3,4-dihydroquinazolin-3-yl}phenyl)piperazin-1-yl]methyl}piperidin-1-yl)-N-(2,6-dioxopiperidin-3-yl)-2-fluorobenzamide] | > 0.5 | > 0.03 |  |  |
| N#Cc1c(NS(=O)(=O)N2CC[C@@H](F)C2)ccc(F)c1Oc1ccc2ncn(-c3cnc(N4CCN(c5ccc6c(c5)C(=O)N(C5CCC(=O)NC5=O)C6=O)CC4)nc3)c(=O)c2c1 (stereo partly drawn) [Example 31, (3R)-N-(2-cyano-3-{[3-(2-{4-[2-(2,6-dioxopiperidin-3-yl)-1,3-dioxo-2,3-dihydro-1H-isoindol-5-yl]piperazin-1-yl}pyrimidin-5-yl)-4-oxo-3,4-dihydroquinazolin-6-yl]oxy}-4-fluorophenyl)-3-fluoropyrrolidine-1-sulfonamide] | > 0.5 | > 0.03 |  |  |
